# In article PMC11601581 (bioRxiv, 2024):
# Biological target: NTSR1 (Homo sapiens, UniProt P30989)
# Assay: BRET1 β-arrestin1/2 recruitment to NTSR1, ligand alone
# Assay type: cell-based
# Chain of NTSR1 (P30989 whole entry): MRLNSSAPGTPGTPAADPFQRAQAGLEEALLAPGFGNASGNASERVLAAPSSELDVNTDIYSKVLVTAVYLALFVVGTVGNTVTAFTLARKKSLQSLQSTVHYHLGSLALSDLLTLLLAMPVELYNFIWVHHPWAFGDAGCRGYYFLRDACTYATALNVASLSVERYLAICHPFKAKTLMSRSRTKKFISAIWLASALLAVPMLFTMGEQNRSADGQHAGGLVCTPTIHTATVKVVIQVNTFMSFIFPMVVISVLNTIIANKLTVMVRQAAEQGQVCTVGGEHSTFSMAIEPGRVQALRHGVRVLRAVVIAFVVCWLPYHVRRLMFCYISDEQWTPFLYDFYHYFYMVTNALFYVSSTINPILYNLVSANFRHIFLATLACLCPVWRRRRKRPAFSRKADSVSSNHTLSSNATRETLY
structure (smiles),measurement,setting,value
COc1cccc(OC)c1-c1cc(C(=O)NC2(C(=O)O)C3CC4CC(C3)CC2C4)nn1-c1ccc(C(=O)N(C)CCCN(C)C)cc1C(C)C (centres unmarked) [SR142948A],agonist efficacy,β-arrestin1,without effect
same,agonist efficacy,β-arrestin2,without effect
